Laboratory results from patent US11028095B2, “Spiro-lactam and bis-spiro-lactam NMDA receptor modulators and uses thereof” (Aptinyx Inc., priority 2016, dated 2021).
Read-outs that look alike come from different tables or passages of the source.

Legend:
[1] = system: positive (hedonic) 50-kHz ultrasonic vocalizations (USVs); assay: Positive Emotional Learning (PEL) test; type: in vivo; conditions: rat, PO, one hour after administration
Summary of the method: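 Rats received test compound or vehicle (0.5% carboxymethyl cellulose in saline) 1 h before 3 min of experimenter-delivered rough-and-tumble play in alternating 15 s play and no-stimulation blocks. Frequency-modulated 50-kHz USVs during no-stimulation (CS) periods were counted; animals not habituated beforehand.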

[2] = Microsomal stability (Human); type: in vitro ADME; conditions: human microsomes
Description: (§1) Microsomal stability of disclosed compounds was investigated. The following table indicates the percent of compound remaining after 60 minutes.

[3] = Microsomal stability (Rat); type: in vitro ADME; conditions: rat microsomes
Description: as §1

Plasma stability (Human) = type: in vitro ADME
Description: (§2) Plasma stability of disclosed compounds was investigated. The following table indicates the percent of compound remaining after 60 minutes.

Plasma stability (Rat) = type: in vitro ADME
Description: as §2

[4] = molecular target: T1, NMDAR2A expressing HEK cell membranes (Homo sapiens, UniProt Q05586+Q12879); assay: NMDAR agonist assay, [3H]MK-801 binding, NMDAR2A; type: biochemical; conditions: 50 μM glutamate
T1 construct: expressed in transfected cells; host or cells: HEK cells (membrane extract)
Description: (§3) (nonequilibrium conditions).
(§4) The baseline value was determined from the best fit curve of the DPM values modeled using the GraphPad program and the log(agonist) vs. response(three parameters) algorithm was then subtracted from all points in the dataset.

[5] = molecular target: T2, NMDAR2B expressing HEK cell membranes (Homo sapiens, UniProt Q05586+Q13224); assay: NMDAR agonist assay, [3H]MK-801 binding, NMDAR2B; type: biochemical; conditions: 50 μM glutamate; for EC50: [3H]MK-801 binding, read-out: NMDAR2B log EC50 (converted)
T2 construct: expressed in transfected cells; host or cells: HEK cells (membrane extract)
T2 sequence (Q13224 27-1484, other chains not shown): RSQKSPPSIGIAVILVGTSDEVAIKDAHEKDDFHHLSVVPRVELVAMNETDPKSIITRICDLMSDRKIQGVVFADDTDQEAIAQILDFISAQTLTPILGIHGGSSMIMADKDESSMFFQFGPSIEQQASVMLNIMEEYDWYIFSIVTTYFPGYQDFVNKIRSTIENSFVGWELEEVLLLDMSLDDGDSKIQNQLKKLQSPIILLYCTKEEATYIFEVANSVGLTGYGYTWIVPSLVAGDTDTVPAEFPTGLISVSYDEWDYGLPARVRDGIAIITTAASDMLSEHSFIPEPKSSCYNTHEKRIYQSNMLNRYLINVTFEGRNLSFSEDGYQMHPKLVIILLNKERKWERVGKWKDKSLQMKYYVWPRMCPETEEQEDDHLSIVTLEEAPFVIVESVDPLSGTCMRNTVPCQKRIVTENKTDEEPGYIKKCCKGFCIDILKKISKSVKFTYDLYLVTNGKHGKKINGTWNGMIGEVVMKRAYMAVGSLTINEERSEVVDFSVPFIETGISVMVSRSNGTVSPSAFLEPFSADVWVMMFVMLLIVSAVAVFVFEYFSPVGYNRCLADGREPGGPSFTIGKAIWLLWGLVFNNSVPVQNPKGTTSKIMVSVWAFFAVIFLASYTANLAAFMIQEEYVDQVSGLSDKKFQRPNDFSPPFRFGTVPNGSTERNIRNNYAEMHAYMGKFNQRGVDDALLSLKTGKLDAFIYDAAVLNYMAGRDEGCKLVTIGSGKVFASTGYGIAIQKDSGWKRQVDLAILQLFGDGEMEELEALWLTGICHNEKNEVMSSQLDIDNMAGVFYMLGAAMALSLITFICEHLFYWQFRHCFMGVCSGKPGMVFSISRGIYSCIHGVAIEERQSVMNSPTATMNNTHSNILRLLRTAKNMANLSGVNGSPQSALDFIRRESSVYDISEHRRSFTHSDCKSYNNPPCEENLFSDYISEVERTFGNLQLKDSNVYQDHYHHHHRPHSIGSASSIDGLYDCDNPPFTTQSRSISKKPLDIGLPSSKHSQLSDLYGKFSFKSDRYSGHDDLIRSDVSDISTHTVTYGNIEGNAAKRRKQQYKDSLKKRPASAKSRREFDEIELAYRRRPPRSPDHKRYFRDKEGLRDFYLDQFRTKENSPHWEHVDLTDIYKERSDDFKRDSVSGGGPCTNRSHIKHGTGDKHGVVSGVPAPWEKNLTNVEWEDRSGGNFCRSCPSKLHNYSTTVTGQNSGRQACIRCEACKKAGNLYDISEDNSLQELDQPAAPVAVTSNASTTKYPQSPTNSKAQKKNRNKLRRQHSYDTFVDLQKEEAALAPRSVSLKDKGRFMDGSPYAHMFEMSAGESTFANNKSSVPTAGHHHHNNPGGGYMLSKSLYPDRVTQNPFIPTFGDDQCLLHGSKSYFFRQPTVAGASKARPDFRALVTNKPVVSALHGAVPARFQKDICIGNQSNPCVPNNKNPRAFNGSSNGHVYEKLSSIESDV
Description: as §3, §4

[6] = molecular target: T3, NMDAR2C expressing HEK cell membranes (Homo sapiens, UniProt Q05586+Q14957); assay: NMDAR agonist assay, [3H]MK-801 binding, NMDAR2C; type: biochemical; conditions: 50 μM glutamate; [3H]MK-801 binding; read-out: NMDAR2C: log EC50 (converted)
T3 construct: expressed in transfected cells; host or cells: HEK cells (membrane extract)
Description: as §3, §4

[7] = molecular target: T4, NMDAR2C expressing HEK cell membranes (Homo sapiens, UniProt Q14957); assay: NMDAR agonist assay, [3H]MK-801 binding, NMDAR2C; type: biochemical; conditions: 50 μM glutamate
T4 construct: expressed in transfected cells; host or cells: HEK cells (membrane extract)
Description: as §3, §4

[8] = molecular target: T5, NMDAR2D expressing HEK cell membranes (Homo sapiens, UniProt O15399); assay: NMDAR agonist assay, [3H]MK-801 binding, NMDAR2D; type: biochemical; conditions: 50 μM glutamate; for EC50: [3H]MK-801 binding, read-out: NMDAR2D: log EC50 (converted)
T5 construct: expressed in transfected cells; host or cells: HEK cells (membrane extract)
Description: as §3, §4

[9] = molecular target: T6, NMDAR2D expressing HEK cell membranes (Homo sapiens, UniProt O15399+Q05586); assay: NMDAR agonist assay, [3H]MK-801 binding, NMDAR2D; type: biochemical; conditions: 50 μM glutamate; for EC50: [3H]MK-801 binding, read-out: NMDAR2D: log EC50 (converted)
T6 construct: expressed in transfected cells; host or cells: HEK cells (membrane extract)
Description: as §3, §4

[10] = molecular target: T7, NMDAR2A expressing HEK cell membranes (Homo sapiens, UniProt Q12879); assay: NMDAR agonist assay, [3H]MK-801 binding, NMDAR2A; type: biochemical; conditions: 50 μM glutamate; for EC50: [3H]MK-801 binding, read-out: NMDAR2A: log EC50 (converted)
T7 construct: expressed in transfected cells; host or cells: HEK cells (membrane extract)
T7 sequence (Q12879 23-1464, other chains not shown): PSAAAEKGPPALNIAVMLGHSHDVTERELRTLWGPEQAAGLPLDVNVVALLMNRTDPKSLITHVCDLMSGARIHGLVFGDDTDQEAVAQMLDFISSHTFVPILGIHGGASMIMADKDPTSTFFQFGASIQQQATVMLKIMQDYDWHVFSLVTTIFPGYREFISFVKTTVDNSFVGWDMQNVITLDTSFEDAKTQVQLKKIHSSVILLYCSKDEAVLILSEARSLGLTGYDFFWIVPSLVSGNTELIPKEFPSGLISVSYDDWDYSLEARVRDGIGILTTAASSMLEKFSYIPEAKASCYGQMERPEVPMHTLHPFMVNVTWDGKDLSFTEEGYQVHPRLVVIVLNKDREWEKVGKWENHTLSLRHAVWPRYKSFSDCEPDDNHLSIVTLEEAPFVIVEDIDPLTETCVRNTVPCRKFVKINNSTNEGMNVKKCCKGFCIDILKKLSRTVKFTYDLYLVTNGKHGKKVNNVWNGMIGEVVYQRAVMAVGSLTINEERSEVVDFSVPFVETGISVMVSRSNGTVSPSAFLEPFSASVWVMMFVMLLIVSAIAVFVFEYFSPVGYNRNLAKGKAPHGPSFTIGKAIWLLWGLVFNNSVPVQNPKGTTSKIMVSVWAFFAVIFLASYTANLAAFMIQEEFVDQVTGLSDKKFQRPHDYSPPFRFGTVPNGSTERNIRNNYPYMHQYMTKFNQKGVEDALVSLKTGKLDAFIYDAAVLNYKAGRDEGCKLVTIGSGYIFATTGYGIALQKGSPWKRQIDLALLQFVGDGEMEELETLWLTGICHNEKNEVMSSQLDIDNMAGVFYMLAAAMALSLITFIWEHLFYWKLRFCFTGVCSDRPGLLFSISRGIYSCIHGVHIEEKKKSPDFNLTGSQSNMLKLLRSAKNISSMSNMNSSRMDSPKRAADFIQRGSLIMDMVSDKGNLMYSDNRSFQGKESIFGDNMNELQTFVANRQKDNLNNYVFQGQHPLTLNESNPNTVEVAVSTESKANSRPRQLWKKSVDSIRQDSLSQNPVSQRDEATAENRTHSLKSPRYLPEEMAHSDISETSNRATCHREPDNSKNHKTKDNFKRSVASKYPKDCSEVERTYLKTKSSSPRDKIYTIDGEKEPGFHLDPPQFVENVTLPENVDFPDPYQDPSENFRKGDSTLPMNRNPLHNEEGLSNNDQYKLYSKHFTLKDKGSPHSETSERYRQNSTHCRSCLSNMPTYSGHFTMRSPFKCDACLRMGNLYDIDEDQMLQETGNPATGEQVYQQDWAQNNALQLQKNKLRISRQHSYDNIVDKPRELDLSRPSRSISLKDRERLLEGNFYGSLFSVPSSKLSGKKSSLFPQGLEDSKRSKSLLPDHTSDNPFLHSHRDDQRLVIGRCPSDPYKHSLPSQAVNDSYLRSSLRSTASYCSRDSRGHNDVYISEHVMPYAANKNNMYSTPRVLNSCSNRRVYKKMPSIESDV
Description: as §3, §4

[11] = molecular target: T8, NMDAR2B expressing HEK cell membranes (Homo sapiens, UniProt Q13224); assay: NMDAR agonist assay, [3H]MK-801 binding, NMDAR2B; type: biochemical; conditions: 50 μM glutamate; for EC50: [3H]MK-801 binding, read-out: NMDAR2B log EC50 (converted)
T8 construct: expressed in transfected cells; host or cells: HEK cells (membrane extract)
T8 sequence (Q13224 27-1484, other chains not shown): as the sequence (Q13224 27-1484, other chains not shown) above
Description: as §3, §4

IV pharmacokinetics = type: in vivo; parameters: C0: unit: ng/mL; conditions: Sprague Dawley rats, 2 mg/kg, normal saline
Description: Sprague Dawley rats were dosed intravenously using a normal saline formulation containing 2 mg/kg of the compounds identified in the below table. The table below summarizes the results of the IV pharmacokinetics.

[12] = Oral pharmacokinetics (plasma, brain, CSF); type: in vivo; parameters: Cmax: unit: ng/mL; conditions: Sprague Dawley rats, per os, 10 mg/kg; for Tmax: normal saline
Description: In another experiment, Sprague Dawley rats were dosed per os using a normal saline formulation containing 10 mg/kg of the compounds identified in the table below. Plasma, brain, and CSF samples were analyzed at various time points over a 24 hour period. The table below summarizes the results of the oral pharmacokinetics.

[13] = Sprague Dawley, rat, in vivo, iv
[14] = Sprague Dawley, rat, plasma, po

Compound | Microsomal (Human): percent of compound remaining after 60 minutes [2] [%] | Microsomal (Rat): percent of compound remaining after 60 minutes [3] [%] | Plasma (Human): percent of compound remaining after 60 minutes (Plasma stability (Human)) [%] | Plasma (Rat): percent of compound remaining after 60 minutes (Plasma stability (Rat)) [%] | EC50 [5] [nM] | EC50 [6] [nM] | NMDAR2C A: % maximal [3H]MK-801 binding relative to 1 mM glycine [7] | NMDAR2D: % maximal [3H]MK-801 binding relative to 1 mM glycine [8] | EC50 [9] [nM] | EC50 [10] [nM] | NMDAR2A: % maximal [3H]MK-801 binding relative to 1 mM glycine [10] | EC50 [11] [nM] | NMDAR2B: % maximal [3H]MK-801 binding relative to 1 mM glycine [11] | Max Effect (mean number of 50 kHz USVs per 15 seconds) ([1]; dose 0.1 mg/kg) | Vss (IV pharmacokinetics) [L/kg] | CSF Cmax [12] [ng/mL] | Brain Cmax [12] [ng/mL] | EC50 [8] [nM] | further results
O=C1NCC12CCC1(CNC1=O)N2Cc1ccccc1 (single isomer, unassigned) [AC-2, 5-benzyl-2,5,8-triazadispiro[3.1.36.24]undecane-1,7-dione] | 98 | 100 | 94 | 94 | < 1 | < 1 | + (<100%=+) | + (<100%=+) | < 1 | – | – | – | – | – | – | – | – | – | Max Effect (mean number of 50 kHz USVs per 15 seconds) ([1]; dose 0.001-1 mg/kg): * (*: 6-10.9); EC50 ([4]; [3H]MK-801 binding, read-out: NMDAR2A: log EC50 (converted)): < 1 nM; Emax ([4]; relative to 1 mM glycine, read-out: NMDAR2A: % maximal [3H]MK-801 binding relative to 1 mM glycine): < 100%; Emax ([5]; relative to 1 mM glycine, read-out: NMDAR2B: % maximal [3H]MK-801 binding relative to 1 mM glycine): < 100%
O=C1NCC12CCC1(CNC1=O)N2Cc1ccccc1 (single isomer, unassigned) [AC-3, 5-benzyl-2,5,8-triazadispiro[3.1.36.24]undecane-1,7-dione] | 77 | 83 | 92 | 85 | – | – | + (<100%=+) | − (−=0) | > 100 | < 1 | + (<100%=+) | < 1 | + (<100%=+) | – | – | – | – | – | –
C[C@@H](O)[C@H](NC(=O)C1CCC2(CNC2=O)N1Cc1ccccc1)C(N)=O (single isomer, unassigned) [AM] | 95 | 99 | 88 | 87 | < 1 | > 100 | − (−=0) | – | < 1 | < 1 | + (<100%=+) | – | + (<100%=+) | * (*: 6-10.9) | 1.21 | 0 | 0 | – | Emax ([9]; relative to 1 mM glycine, read-out: NMDAR2D: % maximal [3H]MK-801 binding relative to 1 mM glycine): < 100%; AUC(0-t) (IV pharmacokinetics; [13]): 1000 ng·h/mL; clearance (IV pharmacokinetics; [13]): 33.3 mL/min/kg; half-life (IV pharmacokinetics; [13]): 2.38 h; C0 (IV pharmacokinetics; Sprague Dawley, rat, in vivo, iv, read-out: C0): 3460 ng/mL; AUC(0-t) [12, 14]: 97.6 ng·h/mL; bioavailability [12, 14]: 2%; Tmax ([12]; Sprague Dawley, rat, plasma, po, read-out: Tmax): 0.33 h; Cmax ([12]; Sprague Dawley, rat, plasma, po, plasma, read-out: Cmax): 34.2 ng/mL
C[C@@H](O)[C@H](NC(=O)C1CCC2(CNC2=O)N1Cc1ccccc1)C(N)=O (single isomer, unassigned) [AN] | 88 | 87 | 88 | 87 | < 1 | < 1 | + (<100%=+) | + (<100%=+) | – | < 1 | + (<100%=+) | – | + (<100%=+) | * (*: 6-10.9) | 2.45 | 0 | 0 | < 1 | AUClast (IV pharmacokinetics): 727.7 ng·h/mL; C0 (IV pharmacokinetics): 3209.4 ng/mL; Cl (IV pharmacokinetics): 45.98 mL/min/kg; T1/2 (IV pharmacokinetics): 4.67 h; % F [12]: 3%; AUClast [12]: 126.32 ng·h/mL; Tmax [12]: 0.42 h; Cmax ([12]; plasma): 38.9 ng/mL
CC(C)(C)OC(=O)N1CC2(CNC2=O)CC12CNC2=O (centres unmarked) [AY-1] | – | – | – | – | – | – | + (<100%=+) | + (<100%=+) | – | > 100 | − (−=0) | < 1 | + (<100%=+) | – | – | – | – | < 1 | EC50 ([7]; [3H]MK-801 binding, read-out: NMDAR2C: log EC50 (converted)): < 1 nM
